pIC50: −log10 of the molar value.

Series [1] has as its target T1, FOXM1 (Homo sapiens, UniProt Q08050).
T1 sequence (Q08050 1-763): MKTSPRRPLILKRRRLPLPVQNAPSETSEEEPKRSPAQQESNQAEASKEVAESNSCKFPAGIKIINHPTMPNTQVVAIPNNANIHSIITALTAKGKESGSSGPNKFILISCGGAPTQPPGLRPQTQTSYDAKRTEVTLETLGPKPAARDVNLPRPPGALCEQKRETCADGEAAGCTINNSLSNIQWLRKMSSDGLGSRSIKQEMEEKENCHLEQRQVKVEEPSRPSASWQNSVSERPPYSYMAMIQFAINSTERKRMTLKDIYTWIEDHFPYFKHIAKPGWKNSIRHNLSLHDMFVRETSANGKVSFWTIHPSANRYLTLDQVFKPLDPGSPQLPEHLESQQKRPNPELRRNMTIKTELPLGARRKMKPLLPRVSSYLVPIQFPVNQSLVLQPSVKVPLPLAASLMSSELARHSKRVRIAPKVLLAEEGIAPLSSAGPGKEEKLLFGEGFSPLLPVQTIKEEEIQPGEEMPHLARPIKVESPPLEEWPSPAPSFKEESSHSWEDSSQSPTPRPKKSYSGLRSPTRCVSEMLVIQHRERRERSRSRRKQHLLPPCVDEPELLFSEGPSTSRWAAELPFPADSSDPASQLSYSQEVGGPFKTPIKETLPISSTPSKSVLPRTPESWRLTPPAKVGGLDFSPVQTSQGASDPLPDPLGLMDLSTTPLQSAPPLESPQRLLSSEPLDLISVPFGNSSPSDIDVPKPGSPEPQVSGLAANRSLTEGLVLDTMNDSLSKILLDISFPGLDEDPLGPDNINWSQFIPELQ
The series is described as follows: tr-FRET competitive binding assay with Fl-NB-72 probe. Set-up: we attached a terbium donor to purified, full length FOXM1 through a streptavidin-biotin linker. The note with it: displacement of Fl-NB-72 (100 nM), tr-FRET. The protocol: Competitive binding assays of compound binding to FOXM1 by tr-FRET were done in FRET buffer (20 mM Tris, pH 7.5, 50 mM NaCl, 0.01% NP-40 detergent, 10% glycerol) with 0.3 mg/ml ovalbumin and 0.1 mM butylated hydroxy-anisole added fresh daily. Solutions of the protein, fluorescent probe and compound dilutions were prepared at 3× concentrations, the final dilution taking place as they were mixed together in equal portions on the microtiter plate.
Final concentrations were 10^−5 M to 10^−9 M, with the last point being buffer only, no compound. Fluorescein-NB-72 (Fl-NB- 72) was prepared at 1 mM in DMF and stored at −20 °C. It was diluted into FRET buffer to give 100 nM in the assay. Incubations were done in duplicate on black Molecular Devices 96-well microtiter plates. 5 μl of Fl-NB-72 and 5 μl of the compound dilutions, were mixed together on the plate. To this was added 5 µl biotin-FoxM1 and incubated in the dark at room temperature, for 1 h. […] To correct for background signals, biotin-FOXM1 was omitted, and diffusion-enhanced FRET incubations were done in duplicate on black Molecular Devices 96-well microtiter plates. Five microliter of Fl-NB-72 and 5 μl of the compound solutions were mixed together and then 5 µl of FRET buffer plus SaTb was added, mixed and incubated in the dark at room temperature, for 1 h. The tr-FRET signals measured as above were subtracted as a background from the first incubations that contained biotin-FOXM1. Graphs were prepared using Graph Pad/Prism 4.

In series [2] the target is T1, FOXM1. The series is described as follows: Cellular FOXM1 protein level by Western blot. It counts as cell-based. On the set-up: endogenous in cells; host or cells: MDA-MB-231, MCF7. Particulars: MDA-MB-231 or MCF7 cells over time; NB-55 5/8 µM, NB-73 1.5/4 µM, NB-115 4 µM, FDI-6 8 µM. The procedure:
For Western blot analysis, whole-cell extracts were prepared using 1X RIPA lysis buffer (Thermo Fisher) supplemented with 1X protease inhibitor cocktail (Millipore Sigma). […] In some cases, treatments with compound were done in the presence of the proteasome inhibitor MG132 (Calbiochem) as described in the figure legend. […] Band intensities were analyzed with Licor Odyssey 2.1 software. All blots shown together derive from the same experiment and were processed in parallel. Full uncropped images of blots are shown as supplementary figures in the Supplementary Information file. Molecular weight markers were Rainbow markers from GE Healthcare (38–225 kDa) or Precision Plus Dual Color Markers from Biorad (37–250 kDa).

A short description of series [3]: Pharmacokinetics in mice after single s.c. or oral dose. It counts as in vivo, female CD1 mice. The note with it: for AUC / Cmax / half-life: female, CD1, mouse, 40 mg/kg, single dose, plasma.

With `Clc1ccc(C(=C2C3CC4CC(C3)CC2C4)c2ccc(OCCCCCCN3CCCC3)cc2)cc1` [NB-55], the pIC50 on FOXM1 [1] was 5.91. The “intracellular level of FOXM1” value on FOXM1 [2] is reported as “reduced the intracellular level of FOXM1”. The “PK properties (half-lives and blood levels achieved)” value in series [3] (after oral administration) is on record as “good PK properties”. In addition, in series [3] (after s.c. administration), the “PK properties (half-lives and blood levels achieved)” value is reported as “good PK properties”. In series [3] (oral), this molecule had an AUC of 35.7 µM·h, a maximum concentration (Cmax) of 2380 nM and a half-life of 28.8 h. In series [3] (sc), this molecule had an AUC of 34.7 µM·h, a Cmax of 1200 nM and a half-life of 135 h.

The values are drawn from publication PMC6884575, “Suppression of FOXM1 activities and breast cancer growth in vitro and in vivo by a new class of compounds” (NPJ Breast Cancer, 2019).
